US20230190725A1, “MEK INHIBITORS FOR CORNEAL SCARRING AND NEOVASCULARIZATION” (THE BOARD OF TRUSTEES OF THE UNIVERSITY OF ILLINOIS, priority 2019, published 2023)
Where two headings read alike, the source gives them in different places.

Tests used:
PAX6 [1] = assay: PAX6 mRNA (RT-PCR) and protein (SDS-PAGE vs GAPDH) expression in human corneal epithelial cells; type: cell-based; conditions: for PAX6 protein expression: human cornea epithelium cells, 48 hours of treatment
Experimental: For example, PD0325901 (PD) was tested in human corneal epithelial cells (HCEC).
HCEC were treated with a PD composition comprising 1 μM PD dissolved in culture media for up to 120 hours. PAX6 protein levels were detected by SDS-PAGE and quantified by comparing the levels of GAPDH protein (FIG. 1A). In the same treated corneal epithelial cells, PAX6 mRNA expression was measured by RT-PCR using three different primers. (FIG. 1B).
In summary, the MEK inhibition increased PAX6 mRNA and protein expressions in human corneal epithelial cells (2.7±0.2 & 3.0±0.3 folds).

PAX6 [2] = assay: PAX6 mRNA measurement in murine PAX6 heterozygote corneal MSCs; type: cell-based; conditions: n=3
Excerpt: Significance determined by t test. *P<0.05. Ctrl: control. RX: treatment.

ERK1 and ERK2 = assay: Western blot of ERK1/ERK2 in human corneal epithelial cells; type: cell-based
Excerpt: Western blot analysis of human corneal epithelial cells confirmed that this MEK inhibitor effectively and specifically suppresses ERK1 and ERK2, while having minimal effect on p38 as the control (FIG. 10).

mouse model of Aniridia = type: in vivo; conditions: for Corneal stromal thickness: P30, OCT, central cornea, WT 50.5±1.1 μm; for PAX6 protein expression in corneas: P30 PAX6 staining, compared to control; for corneal whole mount CK12 staining intensity: P90, Normal CK12 intensity: 100%; for Corneal scarring (ratio of scar area to total corneal area): slit lamp images
Experimental: Aniridia is a human condition with PAX6 mutation that develops corneal scarring and neovascularization. The MEK pathway is known to inhibit the PAX6 pathway, therefore it was investigated whether MEK inhibitors can indirectly stimulate PAX6 production. MEK inhibitors were tested in vivo, in a mouse model of Aniridia which allowed for investigation corneal opacification, scarring and neovascularization. Oral and topical formulations were optimized using an exemplary MEK inhibitor, such as PD0325901 (PD).
Aniridia mice were treated with or topical PD composition or vehicle, from postnatal day P5 to P30. Wild type (WT) littermates were used as normal reference. OCT and slit lamp images were used to compare the corneal epithelial/stromal thickness, clarity and scarring. H&E and immunostaining with PAX6 and Cytokeratin (CK)12 were used to compare the morphology, protein expression and differentiation. P30 PAX6 staining confirmed increase in PAX6 protein expression in corneas with both oral (2.3±0.2 folds) and topical (2.5±0.1 folds) methods (P<0.001) (oral data not shown, topical data FIG. 3A).
FIG. 2 provides the data from the topical administration of PD compositions. […] The area of scarring was measured manually based on the corneal opacification in the scar area on the slit lamp images using ImageJ (NIH). The ratio of the scar area to total corneal area was reported as a percentage. […] These measurements show the promotion of a more normal differentiation of the corneal epithelium and stroma (FIG. 2). Corneal epithelial and stromal thicknesses were measured at the central cornea and outside the scar area via OCT imaging.
Hematoxylin and eosin (H&E) staining was carried out on Aniridia cornea tissue. […] FIG. 2 provides representative H&E staining of frozen sections from day 30).
Immunohistochemical staining of the mice eyes for DAPI, PAX6 and CK12 (a marker for normal corneal epithelium) was also carried out.

Aniridia mouse model = assay: P90 electroretinography (ERG) in Aniridia mouse model; type: in vivo
Experimental: Retina function was assessed in the Aniridia mouse model using P90 electroretinography (ERG). Aniridia mice were treated with the PD composition described in Example 1 or vehicle.

[3] = tested on: epithelial and limbal stem cell injury model; assay: Corneal injury model with limbal stem cell deficiency; type: in vivo, mouse; conditions: up to 1 month after injury
Experimental: The formulation was tested in an epithelial and limbal stem cell injury model, in which we injured the epithelium of the cornea up to the limbal area, creating a severe scar forming wound with limbal stem cell deficiency.
The PD composition provided in Example 1 was tested in an injury model, in which we injured the epithelium of the cornea up to the limbal area, creating a severe scar forming wound with limbal stem cell deficiency. Using an alger brush, the corneal epithelium was scraped under general anesthesia from limbus to limbus to create a limbal stem cell deficiency model. Following this injury, corneal limbal stem cell deficiency happens, similar to human disease, and the cornea becomes scarred, opacified and vascularized by time.

[4] = human corneal epithelial cells, n=3, FIG. 1

In the case of `O=C(c1ccc(F)c(F)c1Nc1ccc(I)cc1F)N1CC(O)([C@@H]2CCCCN2)C1` [Cobimetinib], the PAX6 protein expression (PAX6 [1]) is reported as “induced PAX6 protein expression” and the PAX6 protein measurement (PAX6 [1]; [4]) is reported as “can induce PAX6 expression”.
With `O=C(NOC[C@H](O)CO)c1ccc(F)c(F)c1Nc1ccc(I)cc1F` [PD0325901, Mirdametinib] the “PAX6 mRNA measurement” value (PAX6 [1]; [4]) was “increase in PAX6 expression”, the PAX6 protein measurement (PAX6 [1]; [4]) was “increase in PAX6 expression” and the “PAX6 mRNA measurement” value (PAX6 [2]) was “increase in PAX6 expression”. The ERK1/ERK2 inhibition (ERK1 and ERK2) was “specific ERK1/ERK2 inhibition”, the “H&E histological pattern of cornea” value (mouse model of Aniridia; frozen sections, day 30) was “more similar histological pattern to normal” and the “toxicity of optimized formulation and dosage” value (mouse model of Aniridia; mouse, in vivo, po) was “no toxicity”. The Corneal stromal thickness (mouse model of Aniridia; oral) was 24.7±4.1 μm, the “PAX6 protein expression in corneas” value (mouse model of Aniridia; oral) was 2.3±0.2 folds and the “corneal whole mount CK12 staining intensity” value (mouse model of Aniridia; oral) was 64±3%. The “Corneal scarring (ratio of scar area to total corneal area)” value (mouse model of Aniridia; oral) was 2.1±0.4%, the Corneal stromal thickness (mouse model of Aniridia; topical) was 25.5±4.7 μm and the “PAX6 protein expression in corneas” value (mouse model of Aniridia; topical) was 2.5±0.1 folds. The “corneal whole mount CK12 staining intensity” value (mouse model of Aniridia; topical) was 69±32%, the “Corneal scarring (ratio of scar area to total corneal area)” value (mouse model of Aniridia; topical) was 2.3±0.6% and the ocular/retinal function (Aniridia mouse model; P90 electroretinography, compared to the control group) was “significantly better ocular/retinal function”. For the same molecule, the “Photopic β wave” value (Aniridia mouse model; topical, P90 ERG) was 102.1 ± 50.9, the “Scotopic α wave” value (Aniridia mouse model; topical, P90 ERG) was −214.5 ± 64.1 and the “Scotopic β wave” value (Aniridia mouse model; topical, P90 ERG) was 244.8 ± 120.1. For the same molecule, the corneal neovascularization [3] was “significantly less”, the “corneal opacity / haziness” value [3] was “significantly less” and the corneal neovascularization ([3]; listed as PD) was “significantly reduced”. For the same molecule, the “corneal opacity / haziness” value ([3]; listed as PD) was “significantly reduced”.
With `COc1cc(F)c(F)c(Nc2ccc(I)cc2F)c1NS(=O)(=O)C1(C[C@H](O)CO)CC1` [Refametinib, refametinib] the PAX6 protein expression (PAX6 [1]) was “induced PAX6 protein expression” and the PAX6 protein measurement (PAX6 [1]; [4]) was “can induce PAX6 expression”.
